In patent publication US20050112071A1, “Hypoestoxides, derivatives, agonists and crude extracts thereof for use in cosmetic compositions” (PARAQUEST, INC., priority 2003, published 2005):

Test system: subjects with psoriasis
Assay: erythema resolution in psoriasis plaques after topical administration
Format: in vivo, human
Details: 0.5% by weight in cosmetic composition, topical twice daily for one week; two subjects, elbows; observed day 7
Description: In another method, an effective amount of hypoestoxide crude extract, hypoestes rosea dried leaf powder or a compound of formula I, in a cosmetic composition or in isolation, is applied to the host's skin to alleviate psoriasis. In a preferred embodiment, 0.5% by weight of pure hypoestoxide in a cosmetic composition was applied to two subjects with psoriasis. Topical administration was performed twice daily for one week at the subjects' job sites. Subjects had crusted erythematous plaques on their elbows. The cosmetic composition consisted of the following ingredients: multi-fruit complex, cetearyl alcohol and ceteareth 20, glyceryl stearate, cetyl alcohol, tocopherol, vitamin A palmatate, allantoin, lanolin, ascorbic acid, botanical extract, xanthan gum, ceteth-20 and propylparaben. Erythema resolution was noted by observation of the subjects' plaques on day 7.

**Q.** For C=C1C(=O)C[C@H]2C[C@@H]3O[C@@]3(C)CC[C@@H]3O[C@@]3(C)C[C@@H](OC(C)=O)[C@H]1C2(C)C [hypoestoxide], which “Erythema resolution of crusted erythematous plaques” value is on record?
**A.** significant erythema resolution
